From patent US20170266186A1, “USE OF INHIBITORS OF BRUTON'S TYROSINE KINASE (BTK)” (Pharmacyclics LLC, priority 2011, published 2017)

Legend:
[1] = system: primary MCL; assay: actin polymerization of primary MCL in co-culture; conditions: 100 nM (p<0.001)
[2] = system: DoHH2 cells; assay: Alamar blue assay in DoHH2 cells; assay type: cell-based
[3] = system: Mino cells; assay: co-culture assay: migration of Mino cells beneath M2-10B4 stromal cells (pseudoemperipoliesis); assay type: cell-based, human; conditions: significant at 100 nM (p<0.01) and 1000 nM (p<0.001)
[4] = system: primary MCL cells; assay: co-culture assay: pseudoemperipoliesis of primary MCL cells with M2 stromal cells; assay type: cell-based, human; conditions: 100 nM
[5] = system: CD19+CD5+ cells of MCL patients; assay: flow cytometry phenotyping of PBMCs of MCL patients before (D1) and after one week (D8) of ibrutinib; assay type: in vivo, human
Method: Blood was drawn from MCL patients enrolled in PCYC-04753 or PCYC-1104 studies in the US in accordance with GCP guidelines provided by ICH and principles of the Declaration of Helsinki with informed consent and in compliance with the protocols approved by the relevant Institutional Review Board(s). The whole blood samples were drawn into sodium heparin CPT tubes (BD), mixed for 5 min then spun at 1500 rcf for 20 min at the collection sites. The samples were shipped overnight to Pharmacyclics with 36 hrs. In a laminar flow hood, the PBMCs were removed from the top layer of the tubes, washed with PBS, and frozen in 90% FBS+10% DMSO (Sigma, St Louis, Mo.) in liquid nitrogen until use.
Frozen PBMCs were thawed in a 37° C. water bath, resuspended in RPMI+10% FBS, and recovered in a 37° C., 5% CO2 incubator in 5 ml polypropylene tubes (BD-Falcon) for 2 hours before phenotyping analysis. The PBMCs were washed with PBS+2% FBS, pelleted and resuspended in PBS+2% FBS containing phenotyping surface antibodies. All staining cocktails were run in duplicate tubes. The cells were stained for 30 minutes, washed with PBS, pelleted at 1300 rpm for 5 min, then fixed in PBS+1.6% paraformaldehyde (Electron Microscopy Services, Hatfield, Pa.).
BD FACS Canto II (BD, San Jose, Calif.) was used for all flow cytometry collection. The instrument was maintained according to manufacturer's recommendations. CS&T beads (BD) are used daily for baseline and reproducibility measurements according to manufacturer's instructions. Phosphoflow assays were stained and performed as described. The above antibodies were used with BD CompBead Plus to establish compensation settings and antibody staining consistency. 10,000 CD19^+ cells were collected from each staining sample. The data was analyzed and quantified using FlowJo7.6 (Tree Star, Ashland, Oreg.).

[6] = system: B cell lymphoma derived cell lines; assay: growth inhibition in a subset of B cell lymphoma derived cell lines; assay type: cell-based; conditions: Homo sapiens, read-out: GI50 values, range
[7] = system: WSU-NHL; assay: growth inhibition by PCI-32765, WSU-NHL; assay type: cell-based; conditions: Homo sapiens, FL-transformed
[8] = system: Ramos; assay: growth inhibition by PCI-32765, Ramos; assay type: cell-based; conditions: Homo sapiens, Burkitt's
[9] = system: MCL patients; assay: ALC and tumor volume (SPD) in MCL patients treated with ibrutinib
[10] = system: LY3; assay: growth inhibition by PCI-32765, LY3; assay type: cell-based; conditions: Homo sapiens; LY3, DLBCL, ABC (CARD11)
[11] = system: DB; assay: growth inhibition by PCI-32765, DB; assay type: cell-based; conditions: Homo sapiens, DLBCL
[12] = clinical; conditions: human, plasma; for AUC(0-inf): Mean (CV) AUC0-∞; for AUC(0-t): Mean AUC0-24h, steady state (Day 8)
[13] = system: Mino cells; assay: actin polymerization in Mino cells (phalloidin); assay type: cell-based, human; conditions: 10 and 100 nM (p<0.001)

C=CC(=O)N1CCC[C@@H](n2nc(-c3ccc(Oc4ccccc4)cc3)c3c(N)ncnc32)C1 [PCI-32765, (R)-1-(3-(4-amino-3-(4-phenoxyphenyl)-1H-pyrazolo[3,4-d]pyrimidin-1-yl)piperidin-1-yl)prop-2-en-1-one]
actin polymerization of primary MCL in co-culture [1]: suppressed | sensitivity of DOHH2 cell line [2]: moderately sensitive | migration of Mino cells beneath the stromal cells [3]: dose-dependently inhibited | pseudoemperipoliesis of primary MCL (hCD19+ cells) [4]: inhibited | absolute count and percentage of CD19+CD5+ cells in the lymphocyte population ([5]; after one week of ibrutinib treatment, p<0.05): significantly increased | intracellular Ki67 expression ([5]; after treatment, p<0.05): significantly reduced | pErk expression in CD20+CD5+ cells ([5]; differences not statistically significant): reduced | surface expression of CXCR4 in the CD19+CD5+ population ([5]; following one week of drug treatment, p<0.05): significantly reduced | CD38+ cells among CD19+CD5+ cells ([5]; following treatment, p<0.01): significantly decreased | CD19+CD3− population of gated lymphocytes ([5]; illustrative patient, after one week of treatment, before 9.29%): 63% | CD19+CD5+ population ([5]; illustrative patient, after one week of treatment, before 84.4%): 98.8% | GI50 [6]: 0.1 to 5.5 µM | GI50 [7]: 0.12 µM | GI50 [8]: 5.5 µM | increase in ALC ([9]; Phase 2, 560 mg per day, following 2-4 weeks of drug treatment): 100-150% | reduction of tumor volumes (Sum of Perpendicular Diameters, SPD), on average ([9]; Phase I, MCL patients (n=9), evaluations following 2, 4 and 6 cycles): 80% | GI50 [10]: > 10 µM | GI50 [11]: > 10 µM | AUC(0-inf) ([12]; 1.25 mg/kg, Day 1, cohort 1, 1.25 mg/kg): 181 ng·h/mL | Tmax ([12]; 1.25 mg/kg, Mean (CV) Tmax, Day 1, cohort 1, 1.25 mg/kg): 1 h | AUC(0-t) ([12]; 1.25 mg/kg, cohort 1, 1.25 mg/kg): 301 ng·h/mL | AUC(0-inf) ([12]; 5 mg/kg, Day 1, cohort 3, 5 mg/kg): 419 ng·h/mL | Tmax ([12]; 5 mg/kg, Mean (CV) Tmax, Day 1, cohort 3, 5 mg/kg): 2.3 h | AUC(0-t) ([12]; 5 mg/kg, cohort 3, 5 mg/kg): 1580 ng·h/mL | AUC(0-inf) ([12]; 8.3 mg/kg, Day 1, cohort 4, 8.3 mg/kg): 923 ng·h/mL | AUC(0-inf) ([12]; 8.3 mg/kg, Day 1, cohort CD (continuous dosing), 8.3 mg/kg): 1030 ng·h/mL | Tmax ([12]; 8.3 mg/kg, Mean (CV) Tmax, Day 1, cohort 4, 8.3 mg/kg): 1.8 h | Tmax ([12]; 8.3 mg/kg, Mean (CV) Tmax, Day 1, cohort CD (continuous dosing), 8.3 mg/kg): 2.2 h | AUC(0-t) ([12]; 8.3 mg/kg, cohort 4, 8.3 mg/kg): 2330 ng·h/mL | AUC(0-t) ([12]; 8.3 mg/kg, cohort CD (continuous dosing), 8.3 mg/kg): 1540 ng·h/mL | AUC(0-inf) ([12]; 12.5 mg/kg, Day 1, cohort 5, 12.5 mg/kg): 1550 ng·h/mL | Tmax ([12]; 12.5 mg/kg, Mean (CV) Tmax, Day 1, cohort 5, 12.5 mg/kg): 1.7 h | AUC(0-t) ([12]; 12.5 mg/kg, cohort 5, 12.5 mg/kg): 2940 ng·h/mL | AUC(0-inf) ([12]; 560 mg, Day 1, Fixed cohort, 560 mg fixed dose): 749 ng·h/mL | Tmax ([12]; 560 mg, Mean (CV) Tmax, Day 1, Fixed cohort, 560 mg fixed dose): 1.8 h | AUC(0-t) ([12]; 560 mg, Fixed cohort, 560 mg fixed dose): 1550 ng·h/mL | Tmax ([12]; […], Mean (CV) Tmax, Day 1, cohort 2, […]): 2.1 h | Tmax ([12]; time to maximum plasma concentration (Tmax), range over dose levels): 1 to 2.3 h | CXCL12-increased cortical actin of Mino cells [13]: dose-dependently and significantly inhibited
